Measured values reported in Sander's compilation of Henry's law constants (doi:10.1016/1352-2310(94)00256-k).

Assay: Henry solubility constant Hcp at 298.15 K (mol/(m3 Pa))
Details: reference: Dewulf et al. (1995)

Row | SMILES | Henry solubility constant Hcp
1 | Cc1ccc(C)cc1 [1,4-dimethylbenzene] | 0.0017
2 | c1ccccc1 [benzene] | 0.0021
3 | ClC=C(Cl)Cl [trichloroethene] | 0.0012
4 | Cc1cccc(C)c1 [1,3-dimethylbenzene] | 0.0016
5 | CC(Cl)(Cl)Cl [1,1,1-trichloroethane] | 0.00067
6 | CCc1ccccc1 [ethylbenzene] | 0.0015
7 | Cc1ccccc1 [methylbenzene] | 0.0018
8 | ClC(Cl)=C(Cl)Cl [tetrachloroethene] | 0.00069
9 | ClC(Cl)(Cl)Cl [tetrachloromethane] | 0.00038
10 | Cc1ccccc1C [1,2-dimethylbenzene] | 0.0024
